According to patent US7115740B2, “Pyrimido compounds having antiproliferative activity” (Hoffmann-la Roche Inc., priority 2003, dated 2006):

melting point	Structure (SMILES)
156 to 163 °C	COc1ccc(N2Cc3cnc(Nc4ccccc4)nc3N([C@H](C)CO)C2=O)cc1 [Example 23d, (R)-(−)-1-(2-hydroxy-1-methyl-ethyl)-3-(4-methoxy-phenyl)-7-phenylamino-3,4-dihydro-1H-pyrimido[4,5-d]pyrimidin-2-one]
189 to 193 °C	COc1ccc(N2Cc3cnc(Nc4ccccc4)nc3N(C[C@@H](C)O)C2=O)cc1 [Example 28d, (R)-(−)-1-(2-hydroxy-propyl)-3-(4-methoxy-phenyl)-7-phenylamino-3,4-dihydro-1H-pyrimido[4,5-d]pyrimidin-2-one]
173 to 177 °C	COc1ccc(N2Cc3cnc(Nc4ccc(F)cc4)nc3N([C@@H](C)CO)C2=O)c(F)c1 [Example 21b, (S)-(+)-3-(2-fluoro-4-methoxy-phenyl)-7-(4-fluoro-phenylamino)-1-(2-hydroxy-1-methyl-ethyl)-3,4-dihydro-1H-pyrimido[4,5-d]pyrimidin-2-one]
140 to 147 °C	COc1ccc(N2Cc3cnc(Nc4ccccc4)nc3N([C@@H](C)CO)C2=O)cc1 [Example 15d, (S)-(+)-1-(2-hydroxy-1-methyl-ethyl)-3-(4-methoxy-phenyl)-7-phenylamino-3,4-dihydro-1H-pyrimido[4,5-d]pyrimidin-2-one]
188 to 193 °C	COc1ccc(N2Cc3cnc(Nc4ccccc4)nc3N(C[C@H](C)O)C2=O)cc1 [Example 31d, (S)-(+)-1-(2-hydroxy-propyl)-3-(4-methoxy-phenyl)-7-phenylamino-3,4-dihydro-1H-pyrimido[4,5-d]pyrimidin-2-one]
